Assay results: publication PMC4335020, “Single Oral Dose Pharmacokinetics of Decursin and Decursinol Angelate in Healthy Adult Men and Women” (PLoS ONE, 2015)
Like-named read-outs stand apart in the source and are kept apart here.

Assay: Single oral dose human plasma pharmacokinetics of D, DA and DOH after Cogni.Q
Type: in vivo
From the text: Ten healthy male and 10 female subjects were recruited by public announcement in Amarillo, TX, from January 2013 to April 2013 (see Fig. 1 CONSORT diagram). The sample size for each gender was chosen without power calculation due to the lack of prior knowledge of PK parameter variance in humans. After receiving informed consent verbally and in writing, the health status of each candidate was confirmed by health questionnaire, plasma biochemistry (hepatic and renal functions), complete blood cell count (CBC), and a physical examination by a participating academic physician. Subjects with diabetes, or pregnant, perinatal and breastfeeding women were excluded. For the 48 hours preceding study visit until the final blood draw, all subjects were instructed to avoid taking any prescription or nonprescription drugs, vitamins, and herbal/dietary supplements. Each subject was compensated for participating in the study per TTUHSC IRB approved rate.
Eligible subjects arrived at our clinical facility at 0700 (7:00 am) on the test day after a fast beginning at 2200 (10:00 pm) the previous night. After a brief review of vital signs, the nurse placed an intravenous (IV) line with saline drip in one arm of each subject. A baseline pre-dose (hour 0) blood sample was drawn through the IV line; after that subjects swallowed four Cogni.Q vegicaps with 240 mL of water at hour 0 under direct supervision. Subjects stayed at the clinical facility in their room for the next 12 hours, returning at 24 and 48 hours. Blood was drawn at baseline (hour 0) and at 0.5, 1, 2, 3, 4, 6, 8, 12, 24 and 48 hours after dosing into Vacutainer Blood Collection Tube (Becton-Dickinson, Franklin Lakes, NJ. Product Number: 367874, Sodium heparin was used as anti-coagulant). Water was allowed as desired except for within the first hour after Cogni.Q consumption. All subjects received standardized meals at post-dose hours 4.5 and 9.5 but no food was allowed for at least the first 4 hours post-dose.
Plasma was prepared by centrifuging the heparinized blood at 1000 g for 15 minutes at room temperature. Urine samples (40mL) were collected within time spans of 0–4, 4–8, 8–12 and 12–24 hours (total volume of urine was recorded). All plasma and urine samples were put on dry ice immediately and then stored at -80°C freezer until analysis.
Plasma samples were extracted with a validated solid supported liquid extraction (SLE) method facilitated with a positive pressure manifold (Biotage, Charlotte, NC). Briefly, 100 μL of plasma sample was spiked with 5 μL of 10 ng/μL prednisolone (IS), diluted with 200 μL of LC-MS grade water, mixed and loaded onto ISOLUTE SLE+ 400 μL Array Well cartridges (Biotage, Charlotte, NC). A pulse of minimum positive pressure was applied to facilitate the samples absorption into the cartridges. After the samples were allowed to absorb for 5 min, the compounds were eluted with 2×500 μL tert-butyl methyl ether. The eluent was dried in a Speedvac and the resulting residue was reconstituted in 50 μL of methanol for UHPLC-MS/MS analysis.
Eight-point calibration curves were constructed for D, DA and DOH, at concentrations of 0.1, 0.5, 1, 5, 10, 20, 50 and 100 μg/L for D and DA, and at concentrations of 1, 5, 10, 50, 100, 200, 500 and 1000 μg/L for DOH, respectively. The linear range was 0.1–100 μg/L (0.3–300 nmol/L), 0.1–100 μg/L (0.3–300 nmol/L) and 1–1000 μg/L (4–4000 nmol/L) for D, DA and DOH, respectively. The inter- and intra-assay CV were lower than 6.5% and the accuracy was between 90–105%. Calibration curve was run for each batch of samples analyzed. The mean calibration curve correlation coefficient (r) for D, DA and DOH was 0.999, 0.999 and 0.998, respectively (data from 7–10 calibration curves). In addition, 70% of the plasma samples were extracted and analyzed twice, the data from two replicate analyses were nearly identical and combined for final data analyses and presentation. […]

## CC1(C)Oc2cc3oc(=O)ccc3cc2C[C@@H]1O [DOH, decursinol]
Both sexes, human, plasma, oral, 4 Cogni.Q vegicaps, n=20 (S1 Table), read-out: Cmax, nM, Grand Mean
  Cmax: 2480 nM
Both sexes, human, plasma, oral, 4 Cogni.Q vegicaps, n=20 (S1 Table), read-out: Tmax, h, Grand Mean
  Tmax: 3.3 h
Both sexes, human, plasma, oral, all subjects, outliers excluded (S1 Table), read-out: Terminal t1/2, h, Grand Mean (converted)
  half-life: 444 min
Both sexes, human, plasma, oral, human subjects, read-out: plasma C max, average value
  Cmax: 2500 nM
Both sexes, human, plasma, oral, n=20 (S1 Table), read-out: AUC0-48h, Grand Mean
  AUC(0-t): 27600 nmol·h/L
Both sexes, human, plasma, oral, range over human subjects, read-out: plasma C max, range in human subjects
  Cmax: 1300 to 4000 nM
Both sexes, human, plasma, po, all human subjects n = 20, single oral dose 4 Cogni.Q vegicaps (119 mg D, 77 mg DA), plasma, read-out: Cmax, nmol/L Mean (SD)
  Cmax: 2480 nM
Both sexes, human, plasma, po, all human subjects n = 20, single oral dose Cogni.Q, plasma (Table 2), read-out: AUC0–48h, nmol/L, Mean (SD)
  AUC(0-t): 27600 nmol·h/L
Both sexes, human, twenty healthy subjects, single oral dose Cogni.Q, plasma (abstract), read-out: mean area under the curve (AUC0-48h)
  AUC(0-t): 27600 nmol·h/L
Both sexes, all human subjects n = 20, single oral dose 4 Cogni.Q vegicaps (119 mg D, 77 mg DA), plasma, read-out: Tmax, h, Mean (SD)
  Tmax: 3.3 h
Both sexes, all human subjects, four outlier subjects excluded, single oral dose Cogni.Q, plasma, read-out: Terminal t1/2, h, Mean (SD) (converted)
  half-life: 444 min
female, human, plasma, oral, 4 Cogni.Q vegicaps, Women n=10 (S1 Table), read-out: AUC0-48h, Mean, F
  AUC(0-t): 32700 nmol·h/L
female, human, plasma, oral, 4 Cogni.Q vegicaps, Women n=10 (S1 Table), read-out: Cmax, nM, Mean, F
  Cmax: 2610 nM
female, human, plasma, oral, Women n=10 (S1 Table), read-out: Tmax, h, Mean, F
  Tmax: 4.1 h
female, human, plasma, oral, Women, outliers excluded (S1 Table), read-out: Terminal t1/2, h, Mean, F (converted)
  half-life: 498 min
female, human, plasma, po, Women N = 10, single oral dose Cogni.Q, plasma, read-out: AUC0–48h, h.nmol/L Mean (SD)
  AUC(0-t): 32700 nmol·h/L
female, human, plasma, po, Women N = 10, single oral dose Cogni.Q, plasma, read-out: Cmax, nmol/L, Mean (SD)
  Cmax: 2610 nM
female, human, plasma, po, Women N = 10, single oral dose Cogni.Q, plasma, read-out: Tmax, h, Mean (SD)
  Tmax: 4.1 h
female, human, plasma, po, Women, outlier subjects excluded, single oral dose Cogni.Q, plasma, read-out: T1/2, h, terminal Mean (SD) (converted)
  half-life: 498 min
human, plasma, oral, 4 Cogni.Q vegicaps, subject S1 (115 lb), outlier, excluded from means, read-out: Terminal t1/2, h (converted)
  half-life: 594 min
human, plasma, oral, 4 Cogni.Q vegicaps, subject S1 (115 lb), read-out: AUC0-48h
  AUC(0-t): 17600 nmol·h/L
human, plasma, oral, 4 Cogni.Q vegicaps, subject S1 (115 lb), read-out: Cmax
  Cmax: 2380 nM
human, plasma, oral, 4 Cogni.Q vegicaps, subject S1 (115 lb), read-out: Tmax
  Tmax: 3 h
human, plasma, oral, 4 Cogni.Q vegicaps, subject S2 (194 lb), read-out: AUC0-48h
  AUC(0-t): 25000 nmol·h/L
human, plasma, oral, 4 Cogni.Q vegicaps, subject S2 (194 lb), read-out: Cmax
  Cmax: 2390 nM
human, plasma, oral, 4 Cogni.Q vegicaps, subject S2 (194 lb), read-out: Terminal t1/2, h (converted)
  half-life: 552 min
human, plasma, oral, 4 Cogni.Q vegicaps, subject S2 (194 lb), read-out: Tmax
  Tmax: 4 h
human, plasma, oral, 4 Cogni.Q vegicaps, subject S3 (170 lb), outlier, excluded from means, read-out: Terminal t1/2, h (converted)
  half-life: 312 min
human, plasma, oral, 4 Cogni.Q vegicaps, subject S3 (170 lb), read-out: AUC0-48h
  AUC(0-t): 8310 nmol·h/L
human, plasma, oral, 4 Cogni.Q vegicaps, subject S3 (170 lb), read-out: Cmax
  Cmax: 1560 nM
human, plasma, oral, 4 Cogni.Q vegicaps, subject S3 (170 lb), read-out: Tmax
  Tmax: 6 h
human, plasma, oral, 4 Cogni.Q vegicaps, subject S4 (170 lb), read-out: AUC0-48h
  AUC(0-t): 63700 nmol·h/L
human, plasma, oral, 4 Cogni.Q vegicaps, subject S4 (170 lb), read-out: Cmax
  Cmax: 2680 nM
human, plasma, oral, 4 Cogni.Q vegicaps, subject S4 (170 lb), read-out: Terminal t1/2, h (converted)
  half-life: 666 min
human, plasma, oral, 4 Cogni.Q vegicaps, subject S4 (170 lb), read-out: Tmax
  Tmax: 6 h
human, plasma, oral, 4 Cogni.Q vegicaps, subject S5 (161 lb), read-out: AUC0-48h
  AUC(0-t): 19200 nmol·h/L
human, plasma, oral, 4 Cogni.Q vegicaps, subject S5 (161 lb), read-out: Cmax
  Cmax: 1530 nM
human, plasma, oral, 4 Cogni.Q vegicaps, subject S5 (161 lb), read-out: Terminal t1/2, h (converted)
  half-life: 462 min
human, plasma, oral, 4 Cogni.Q vegicaps, subject S5 (161 lb), read-out: Tmax
  Tmax: 2 h
human, plasma, oral, 4 Cogni.Q vegicaps, subject S6 (120 lb), read-out: AUC0-48h
  AUC(0-t): 37500 nmol·h/L
human, plasma, oral, 4 Cogni.Q vegicaps, subject S6 (120 lb), read-out: Cmax
  Cmax: 2770 nM
human, plasma, oral, 4 Cogni.Q vegicaps, subject S6 (120 lb), read-out: Terminal t1/2, h (converted)
  half-life: 432 min
human, plasma, oral, 4 Cogni.Q vegicaps, subject S6 (120 lb), read-out: Tmax
  Tmax: 4 h
human, plasma, oral, 4 Cogni.Q vegicaps, subject S7 (180 lb), read-out: AUC0-48h
  AUC(0-t): 51800 nmol·h/L
human, plasma, oral, 4 Cogni.Q vegicaps, subject S7 (180 lb), read-out: Cmax
  Cmax: 3970 nM
human, plasma, oral, 4 Cogni.Q vegicaps, subject S7 (180 lb), read-out: Terminal t1/2, h (converted)
  half-life: 390 min
human, plasma, oral, 4 Cogni.Q vegicaps, subject S7 (180 lb), read-out: Tmax
  Tmax: 6 h
human, plasma, oral, 4 Cogni.Q vegicaps, subject S8 (160 lb), read-out: AUC0-48h
  AUC(0-t): 30400 nmol·h/L
human, plasma, oral, 4 Cogni.Q vegicaps, subject S8 (160 lb), read-out: Cmax
  Cmax: 2530 nM
human, plasma, oral, 4 Cogni.Q vegicaps, subject S8 (160 lb), read-out: Terminal t1/2, h (converted)
  half-life: 330 min
human, plasma, oral, 4 Cogni.Q vegicaps, subject S8 (160 lb), read-out: Tmax
  Tmax: 3 h
human, plasma, oral, 4 Cogni.Q vegicaps, subject S9 (158 lb), read-out: AUC0-48h
  AUC(0-t): 17700 nmol·h/L
human, plasma, oral, 4 Cogni.Q vegicaps, subject S9 (158 lb), read-out: Cmax
  Cmax: 2110 nM
